According to ChEMBL document CHEMBL4390686, “Design, Synthesis, and Pharmacokinetic Evaluation of Phosphate and Amino Acid Ester Prodrugs for Improving the Oral Bioavailability of the HIV-1 Protease Inhibitor Atazanavir” (J Med Chem, 2019):
Converted amounts (≈) assume the structure as drawn.

Legend:
[1] = Prodrug conversion assessed as calf intestinal alkaline phosphatase-mediated compound dephosphorylation by UPLC-MS/MS analysis; format: ADME, Bos taurus; conditions: cattle, isolated protein
[2] = Prodrug conversion in cannulated Sprague-Dawley rat plasma assessed as atazanavir formation at 3 mg/kg equiv of atazanavir administered orally by UPLC/MS/MS analysis; format: ADME, organism-based; conditions: in vivo, po
[3] = Stability in pH 6.5 30%CH3CN/phosphate buffer assessed as parent compound remaining at 50 mM measured after 30 mins by RP-UPLC analysis; format: physicochemical; conditions: read-out: Stability
[4] = rat, in vivo, po, 3 mg/kg
Description: AUClast in cannulated Sprague-Dawley rat assessed as atazanavir level at 3 mg/kg equiv of atazanavir administered orally by UPLC/MS/MS analysis

[5] = Cmin in cannulated Sprague-Dawley rat assessed as atazanavir level at 3 mg/kg equiv of atazanavir administered orally measured after 24 hrs by UPLC/MS/MS analysis; format: ADME, organism-based; conditions: in vivo, po, read-out: Cmin
[6] = Stability in pH 6.5 30%CH3CN/phosphate buffer assessed as parent compound remaining at 50 mM measured after 2 mins by RP-UPLC analysis; format: physicochemical; conditions: read-out: Stability
[7] = rat, in vivo, po, 3 mg/kg; remark: listed apart in the source
[8] = Cmin in cannulated Sprague-Dawley rat at 30 mg/kg equiv of atazanavir administered orally measured after 24 hrs by UPLC/MS/MS analysis; format: ADME, organism-based; conditions: in vivo, po, BLD = below limit of detection
[9] = Cmin in cannulated Sprague-Dawley rat assessed as atazanavir level at 30 mg/kg equiv of atazanavir administered orally measured after 24 hrs by UPLC/MS/MS analysis; format: ADME, organism-based; conditions: in vivo, po, read-out: Cmin
physchem [10] = conditions: 30% CH3CN/acetate buffer, pH 4
Description: Half life in pH 4 30%CH3CN/acetate buffer at 50 mM by RP-UPLC analysis

physchem [11] = conditions: HCl buffer, pH 1
Description: Aqueous solubility of the compound in pH 1 HCl buffer by RP-UPLC analysis

[12] = Tmax in cannulated Sprague-Dawley rat assessed as atazanavir level at 30 mg/kg equiv of atazanavir administered orally by UPLC/MS/MS analysis; format: ADME, organism-based; conditions: in vivo, po
physchem [13] = conditions: 30% CH3CN/phosphate buffer, pH 6.5
Description: Half life in pH 6.5 30%CH3CN/phosphate buffer at 50 mM by RP-UPLC analysis

[14] = Cmin in cannulated Sprague-Dawley rat at 3 mg/kg equiv of atazanavir administered orally measured after 24 hrs by UPLC/MS/MS analysis; format: ADME, organism-based; conditions: in vivo, po, BLD = below limit of detection
[15] = AUClast in cannulated Sprague-Dawley rat assessed as atazanavir level at 30 mg/kg equiv of atazanavir administered orally by UPLC/MS/MS analysis; format: ADME, organism-based; parameters: dose 30 mg/kg, route oral, time 0 - last; conditions: in vivo, po
[16] = rat, in vivo, po, 3 mg/kg; remark: listed apart in the source
[17] = Cmax in cannulated Sprague-Dawley rat assessed as atazanavir level at 30 mg/kg equiv of atazanavir administered orally by UPLC/MS/MS analysis; format: ADME, organism-based; parameters: dose 30 mg/kg, route oral; conditions: in vivo, po
physchem [18] = conditions: 30% CH3CN/HCl buffer, pH 1
Description: Half life in pH 1 30%CH3CN/HCl buffer at 50 mM by RP-UPLC analysis

physchem [19] = conditions: phosphate buffer, pH 6.5
Description: Aqueous solubility of the compound in pH 6.5 phosphate buffer by RP-UPLC analysis

physchem [20] = conditions: acetate buffer, pH 4
Description: Aqueous solubility of the compound in pH 4 acetate buffer by RP-UPLC analysis

[21] = Ratio of test compound to atazanavir aqueous solubility in pH 6.5 phosphate buffer by RP-UPLC analysis; format: physicochemical
[22] = Drug recovery in intestinal homogenates of closed loop rat intestinal model at 1 mg/kg administered as cassette dose by LC/MS analysis; format: ADME, organism-based, Intestine; conditions: intestinal homogenate, other: closed loop intestinal model, read-out: Drug recovery
[23] = Drug recovery in intestinal content of closed loop rat intestinal model at 1 mg/kg administered as cassette dose by LC/MS analysis; format: ADME, organism-based; conditions: in vivo
[24] = Drug recovery in mesenteric vein plasma of closed loop rat intestinal model at 1 mg/kg administered as cassette dose by LC/MS analysis; format: ADME, organism-based; conditions: in vivo
physchem [25] = conditions: phosphate buffer, pH 7.4
Description: Aqueous solubility of the compound in pH 7.4 phosphate buffer by RP-UPLC analysis

physchem [26] = conditions: 30% CH3CN/phosphate buffer, pH 7.4
Description: Half life in pH 7.4 30%CH3CN/phosphate buffer at 50 mM by RP-UPLC analysis

[27] = Prodrug conversion assessed as calf intestinal alkaline phosphatase-mediated compound dephosphorylation by measuring half life by UPLC-MS/MS analysis; format: ADME, Bos taurus; conditions: cattle, isolated protein
in vitro [28] = conditions: human, Caco-2
Description: Apparent permeability across apical to basolateral side in human Caco2 cells at 2 uM

in vitro [29] = conditions: human, Caco-2; remark: listed apart in the source
Description: Apparent permeability across basolateral to apical side in human Caco2 cells at 2 uM

in vitro [30] = conditions: human, Caco-2; remark: listed apart in the source
Description: Efflux ratio of apparent permeability across basolateral to apical side over apical to basolateral side in human Caco2 cells

SMILES	Drug metabolism [2]	AUClast [4]	Tmax [7]	half-life at 50000 µM (physchem [10])	solubility (physchem [11])	Cmax [16]	half-life at 50000 µM (physchem [18])	solubility (physchem [20])	solubility (physchem [25])	half-life at 50000 µM (physchem [26])	further results
CC(C)CN(C[C@@H](OP(=O)(O)O)[C@H](Cc1ccccc1)NC(=O)O[C@H]1CCOC1)S(=O)(=O)c1ccc(N)cc1 [FOSAMPRENAVIR]	Metabolite_Notdetected										Drug metabolism [1]: Metabolite_Notdetected
CC(C)(C)NCC(O)COc1cccc2c1CC(O)C(O)C2 (configuration not stated) [NADOLOL]											recovery [22]: 14%; Drug recovery [23]: 45%; Drug recovery [24]: 1.3%
COC(=O)N[C@H](C(=O)N[C@@H](Cc1ccccc1)[C@H](CN(Cc1ccc(-c2ccccn2)cc1)NC(=O)[C@@H](NC(=O)OC)C(C)(C)C)OC(=O)[C@H](N)CCSC)C(C)(C)C				> 500 h	> 990 µg/mL		> 500 h	> 890 µg/mL	45 µg/mL (≈ 53.8 µM)	97.1 h	
COC(=O)N[C@H](C(=O)N[C@@H](Cc1ccccc1)[C@H](CN(Cc1ccc(-c2ccccn2)cc1)NC(=O)[C@@H](NC(=O)OC)C(C)(C)C)OC(=O)[C@@H](N)Cc1ccc(F)cc1)C(C)(C)C		0.463 µM·h	0.5 h	> 500 h	> 1380 µg/mL	305 nM	> 500 h	> 980 µg/mL	< 1 µg/mL	334 h	Papp A→B at 2 µM (in vitro [28]): < 1.5 ×10⁻⁶ cm/s; Papp B→A at 2 µM (in vitro [29]): 8.2 ×10⁻⁶ cm/s; efflux ratio (in vitro [30]): > 5.5

The next lines start with results.

Drug metabolism [2]	AUClast [4]	Tmax [7]	half-life at 50000 µM (physchem [10])	solubility (physchem [11])	Cmax [16]	half-life at 50000 µM (physchem [18])	solubility (physchem [20])	solubility (physchem [25])	half-life at 50000 µM (physchem [26])	SMILES	further results
	1.533 µM·h	1 h	9.03 h	1170 µg/mL	794 nM	> 500 h				COC(=O)N[C@H](C(=O)N[C@@H](Cc1ccccc1)[C@H](CN(Cc1ccc(-c2ccccn2)cc1)NC(=O)[C@@H](NC(=O)OC)C(C)(C)C)OC(=O)CN(C)C(=O)[C@@H](N)Cc1ccccc1)C(C)(C)C.Cl.Cl	remaining at 0.5 h, 50000 µM [3]: 2%; concentration [5]: 1.9 nM; remaining at 2 min, 50000 µM [6]: 86.1%; Cmin [8]: Bld; concentration [9]: 30.4 nM; Tmax [12]: 1 h; half-life at 50000 µM (physchem [13]): 0.08 h; Cmin [14]: Bld; AUClast [15]: 16.58 µM·h; Cmax [17]: 8760 nM
	0.016 µM·h	0.4 h	> 500 h	> 2900 µg/mL	9 nM	> 500 h	> 3500 µg/mL			COC(=O)N[C@H](C(=O)N[C@@H](Cc1ccccc1)[C@H](CN(Cc1ccc(-c2ccccn2)cc1)NC(=O)[C@@H](NC(=O)OC)C(C)(C)C)OC(=O)CNC(=O)[C@@H](N)Cc1ccccc1)C(C)(C)C	solubility (physchem [19]): > 640 µg/mL; half-life at 50000 µM (physchem [13]): 73.4 h; Ratio [21]: > 200
Metabolite_Notdetected										Cc1cccc(C)c1OCC(=O)N[C@@H](Cc1ccccc1)[C@H](C[C@H](Cc1ccccc1)NC(=O)[C@H](C(C)C)N1CCCNC1=O)OP(=O)(O)O	Drug metabolism [1]: Metabolite_Notdetected
Metabolite_Detected										Cc1cccc(C)c1OCC(=O)N[C@@H](Cc1ccccc1)[C@@H](O)C[C@H](Cc1ccccc1)NC(=O)[C@H](C(C)C)N1CCCNC1=O [LOPINAVIR]	t1/2 [27]: 0.22 h
	0.19 µM·h	0.8 h	376 h	> 1040 µg/mL	90 nM	376 h	> 910 µg/mL	1 µg/mL (≈ 1.12 µM)	167 h	COC(=O)N[C@H](C(=O)N[C@@H](Cc1ccccc1)[C@H](CN(Cc1ccc(-c2ccccn2)cc1)NC(=O)[C@@H](NC(=O)OC)C(C)(C)C)OC(=O)[C@@H](N)Cc1c[nH]c2ccccc12)C(C)(C)C	
